From patent publication US8217051B2, “Spiroindolinone derivatives” (Hoffmann-La Roche Inc., priority 2009, dated 2012)

molecular target: interaction between p53 and MDM2 proteins (Homo sapiens, UniProt Q00987); assay: HTRF assay of inhibition of p53-MDM2 interaction (GST-MDM2 / biotinylated p53 peptide); format: binding; settings: 0.02% BSA
Protocol: The ability of the compounds to inhibit the interaction between p53 and MDM2 proteins was measured by an HTRF (homogeneous time-resolved fluorescence) assay in which recombinant GST-tagged MDM2 binds to a peptide that resembles the MDM2-interacting region of p53 (Lane et al.). Binding of GST-MDM2 protein and p53-peptide (biotinylated on its N-terminal end) is registered by the FRET (fluorescence resonance energy transfer) between Europium (Eu)-labeled anti-GST antibody and streptavidin-conjugated Allophycocyanin (APC).
Test is performed in black flat-bottom 384-well plates (Costar) in a total volume of […] containing:90 nM biotinylate peptide, 160 ng/ml GST-MDM2, 20 nM streptavidin-APC (PerkinElmerWallac), 2 nM Eu-labeled anti-GST-antibody (PerkinElmerWallac), 0.2% bovine serum albumin (BSA), 1 mM dithiothreitol (DTT) and 20 mM […] (TBS) buffer as follows: Add 10 uL of GST-MDM2 (640 ng/ml working solution) in reaction buffer to each well. Add 10 uL diluted compounds (1:5 dilution in reaction buffer) to each well, mix by shaking. Add 20 uL biotinylated p53 peptide (180 nM working solution) in reaction buffer to each well and mix on shaker. Incubate at 37° C. for 1 h. Add 20 uL streptavidin-APC and Eu-anti-GST antibody mixture (6 nM Eu-anti-GST and 60 nM streptavidin-APC working solution) in TBS buffer with 0.2% BSA, shake at room temperature for 30 minutes and read using a TRF-capable plate reader at 665 and 615 nm (Victor 5, Perkin ElmerWallac). If not specified, the reagents were purchased from Sigma Chemical Co.

Sequence of interaction between p53 and MDM2 proteins (Q00987 whole entry): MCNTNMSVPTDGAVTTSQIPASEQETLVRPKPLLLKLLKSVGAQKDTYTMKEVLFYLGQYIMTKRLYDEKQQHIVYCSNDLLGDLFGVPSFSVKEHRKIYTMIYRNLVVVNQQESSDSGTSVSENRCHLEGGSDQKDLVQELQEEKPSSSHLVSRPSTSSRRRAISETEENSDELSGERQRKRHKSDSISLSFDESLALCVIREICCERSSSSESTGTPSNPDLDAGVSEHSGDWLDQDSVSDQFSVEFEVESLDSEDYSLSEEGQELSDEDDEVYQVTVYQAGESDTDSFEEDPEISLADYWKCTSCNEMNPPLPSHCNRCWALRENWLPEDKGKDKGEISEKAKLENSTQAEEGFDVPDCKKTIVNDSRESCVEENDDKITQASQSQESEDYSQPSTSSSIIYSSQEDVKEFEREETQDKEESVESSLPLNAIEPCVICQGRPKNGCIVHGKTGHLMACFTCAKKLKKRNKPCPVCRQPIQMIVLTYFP

IC50 [nM] | Structure (SMILES)
273 | O=C1C=C(c2cccc(Cl)c2)[C@]2(C(=O)Nc3cc(Cl)ccc32)[C@@H](c2cc(Cl)ccc2OC2CCOCC2)N1 (racemic) [Example 12, racemic(2′R,3R)-6-chloro-4′-(3-chloro-phenyl)-2′-[5-chloro-2-(tetrahydro-pyran-4-yloxy)-phenyl]-1′,3′-dihydrospiro[3H-indole-3,3′-pyridine]-2,6′(1H)-dione]
482 | O=C1C=C(c2cccc(F)c2)[C@]2(C(=O)Nc3cc(Cl)ccc32)[C@@H](c2cc(Cl)ccc2OC2CCOCC2)N1 (racemic) [Example 16, racemic(2′R,3R)-6-chloro-2′-[5-chloro-2-(tetrahydro-pyran-4-yloxy)-phenyl]-4′-(3-fluoro-phenyl)-1′,3′-dihydrospiro[3H-indole-3,3′-pyridine]-2,6′(1H)-dione]
5300 | Cc1ccc(F)cc1[C@H]1NC(=O)C=C(c2ccoc2)[C@]12C(=O)Nc1cc(Cl)ccc12 (racemic) [Example 32, racemic(2′R,3R)-6-chloro-2′-(5-fluoro-2-methyl-phenyl)-4′-(furan-3-yl)-1′,3′-dihydrospiro[3H-indole-3,3′(2′H)-pyridine]-2,6′(1H)-dione]
6420 | Cc1ccc(F)cc1[C@H]1NC(=O)C=C(c2cccnc2)[C@]12C(=O)Nc1cc(Cl)ccc12 (racemic) [Example 40, racemic(2′R,3R)-6-chloro-2′-(5-fluoro-2-methyl-phenyl)-4′-(pyridin-3-yl)-1′,3′-dihydrospiro[3H-indole-3,3′(2′H)-pyridine]-2,6′(1H)-dione]
66 | Cc1ccc(F)cc1[C@H]1NC(=O)C=C(c2cccc(Cl)c2)[C@]12C(=O)Nc1cc(Cl)ccc12 [Example 6, chiral(2′R,3R)-6-chloro-4′-(3-chloro-phenyl)-2′-(5-fluoro-2-methyl-phenyl)-1′,3′-dihydrospiro[3H-indole-3,3′(2′H)-pyridine]-2,6′(1H)-dione]
